{"source": "patent US20070213301A1", "about": "(ACHILLION PHARMACEUTICALS, INC., priority 2006, published 2007)", "data": [{"tested_on": "HCV replicon", "test": "HCV replicon replication assay (NPTII ELISA)", "assay_type": "cell-based, Hepatitis C virus (Huh-7 cells)", "conditions": "Hepatitis C virus, Huh-7, 72 h, inhibition of HCV replicon replication in Huh-7 HCV replicon-containing cells, three days incubation, NPT level by ELISA; read-out: EC50", "description": "Compounds claimed herein are tested for the ability to inhibit viral replication of the Hepatitis C replicon in cultured cells in which the HCV replicon construct has been incorporated. The HCV replicon system was described by Bartenschlager, et. al (Science, 285, pp. 110-113 (1999)). The replicon system is predictive of in vivo anti-HCV activity; compounds that are active in humans uniformly evidence activity in the replicon assay.\nIn this assay HCV replicon containing cells are treated with different concentrations of the test compound to ascertain the ability of the test compound to suppress replication of the HCV replicon. As a positive control, HCV replicon-containing cells are treated with different concentrations of interferon alpha, a known inhibitor of HCV replication. The replicon assay system includes Neomycin Phosphotransferase (NPT) as a component of the replicon itself in order to detect the transcription of replicon gene products in the host cell. Cells in which the HCV replicon is actively replicating have high levels of NPT; the level of NPT is proportional to HCV replication. […] The NPT level of each sample is measured using a captured ELISA.\nThe HCV replicon contains, 5′-3′, the HCV-IRES, the neomycin phosphotransferase (neo) gene, the IRES of encephalomyocarditis virus, which directs translation of HCV sequences NS3 to NS5B, and the 3′-NTR. The sequence of the HCV replicon has been deposited in GenBank (Accession no. AJ242652).\nThe replicon is transfected into Huh-7 cells using standard methods such as electroporation.\nThe cells are then seeded onto 96-well plates at a density of 6000-7500 cells/100 microliters/well (6-7.5×10^5 cells/10 ml/plate). The plates are then incubated at 37° C. in a 5% CO2 incubator.\nHCV replicon-containing cells are rinsed with once PBS once; 2 mls of trypsin are then added. Cells are incubated at 37° C. in a 5% CO2 incubator for 3-5 minutes. 10 mls of complete medium is added to stop the reaction. Cells are blown gently, put into a 15 ml tube, and spun at 1200 rpm for four minutes. The trypsin/medium solution is removed and 5 mls of medium (500 ml DMEM (high glucose)) from BRL catalog #12430-054; 50 mls 10% FBS, 5% Geneticin G418 (50 mg/ml, BRL catalog #10131-035), 5 ml MEM non-essential amino acids (100× BRL #11140-050) and 5 ml pen-strep (BRL #15140-148) is added. The cells and media are mixed carefully\nCells are plated with screening medium (500 ml DMEM (BRL #21063-029), 50 ml FBS (BRL #10082-147) and 5 ml MEM non-essential amino acid (BRL #11140-050) at 6000-7500 cells/100 μl/well of 96 well plate (6-7.5×10^5 cells/10 ml/plate). Plates are placed into 37° C. 5% CO2 incubator overnight.\nThe following morning, drugs (test compounds or interferon alpha) are diluted in 96 well U bottom plates with media or DMSO/media, depending on the final concentration chosen for screening. Generally for 6 concentrations of each test compounds ranging from 10 micromolar to 0.03 micromolar are applied. 100 μl of the test compound dilution is placed in wells of the 96 well plate containing the HCV replicon cells. Media without drug is added to some wells as a negative controls. DMSO is known to affect cell growth. Therefore, if drugs diluted in DMSO are used, all wells, including negative control (media only) and positive control (interferon alpha) wells, must contain the same concentration of DMSO, for single dose screening. The plates are incubated at 37° C. in a humidified 5% CO2 environment for three days.\nOn day four, the NTPII assay is quantitated. The medium is poured from the plates and the plates are washed once in 200 μl of PBS. The PBS is then decanted and the plates tapped in a paper towel to remove any remaining PBS. Cells are fixed in situ with 100 μl/well of pre-cooled (−20° C.) methanol:acetone (1:1) and the plates are placed at −20° C. for 30 minutes.\nThe fixing solution is poured from the plates and the plates allowed to air-dry completely (approximately one hour). […]", "units": {"EC50": "µM"}, "values": [{"smiles": "CCCCCCCOc1ccc(N(C(=O)C2CCCCC2)c2nc(-c3ccccn3)cs2)cc1", "note": "[Compound 95, N-(4-(heptyloxy)phenyl)-N-(4-(pyridin-2-yl)thiazol-2-yl)cyclohexanecarboxamide]", "EC50": "1 to 10"}, {"smiles": "CCCCCOc1ccc(N(C(C)=O)c2nc(C(=O)Nc3cccnc3)cs2)cc1C(F)(F)F", "note": "[Compound 7, 2-(N-(4-(pentyloxy)-3-(trifluoromethyl)phenyl)acetamido)-N-(pyridin-3-yl)thiazole-4-carboxamide]", "EC50": "1 to 10"}, {"smiles": "CC(C)COc1ccc(N(C(N)=O)c2nc(-c3ccccn3)cs2)cc1C(F)(F)F", "note": "[Compound 150, 1-(4-isobutoxy-3-(trifluoromethyl)phenyl)-1-(4-(pyridin-2-yl)thiazol-2-yl)urea]", "EC50": "< 1"}, {"smiles": "CCCCCCCCOc1ccc(N(C(=O)CN(C)C)c2nc(-c3cccnc3)c(F)s2)cc1C(F)(F)F", "note": "[Compound 167, 2-(dimethylamino)-N-(5-fluoro-4-(pyridin-3-yl)thiazol-2-yl)-N-(4-(octyloxy)-3-(trifluoromethyl)phenyl)acetamide]", "EC50": "< 1"}, {"smiles": "COc1ccc(N(C(N)=O)c2nc(-c3cccnc3)cs2)cc1C(F)(F)F", "note": "[Compound 84, 1-(4-methoxy-3-(trifluoromethyl)phenyl)-1-(4-(pyridin-3-yl)thiazol-2-yl)urea]", "EC50": "< 1"}, {"smiles": "CCCCCCCCOc1ccc(N(C(=O)NCC(=O)O)c2nc(-c3cccnc3)cs2)cc1C(F)(F)F", "note": "[Compound 165, 2-(3-(4-(octyloxy)-3-(trifluoromethyl)phenyl)-3-(4-(pyridin-3-yl)thiazol-2-yl)ureido)acetic acid]", "EC50": "< 1"}, {"smiles": "CCCCCOc1ccc(N(C)c2nc(C(=O)Nc3ccc(Cl)cc3)cs2)cc1C(F)(F)F", "note": "[Compound 4, N-(4-chlorophenyl)-2-(methyl(4-(pentyloxy)-3-(trifluoromethyl)phenyl)amino)thiazole-4-carboxamide]", "EC50": "1 to 10"}, {"smiles": "CCCCCOc1ccc(N(C(N)=O)c2nc(-c3ccc(O)c(C(N)=O)c3)cs2)cc1F", "note": "[Compound 109, 5-(2-(1-(3-fluoro-4-(pentyloxy)phenyl)ureido)thiazol-4-yl)-2-hydroxybenzamide]", "EC50": "1 to 10"}, {"smiles": "CCCCCCOc1ccc(N(C(N)=O)c2nc(-c3ccc(F)c(F)c3)cs2)cc1", "note": "[Compound 124, 1-(4-(3,4-difluorophenyl)thiazol-2-yl)-1-(4-(hexyloxy)phenyl)urea]", "EC50": "< 1"}, {"smiles": "CCCCCOc1ccc(N(C(=O)C(C)C)c2nc(-c3cccnc3)cs2)cc1F", "note": "[Compound 25, N-(3-fluoro-4-(pentyloxy)phenyl)-N-(4-(pyridin-3-yl)thiazol-2-yl)isobutyramide]", "EC50": "< 1"}, {"smiles": "CCCCCCCCOc1ccc(N(COC(=O)C(C)(C)C)c2nc(-c3cccnc3)c(F)s2)cc1C(F)(F)F", "note": "[Compound 192, ((5-fluoro-4-(pyridin-3-yl)thiazol-2-yl)(4-(octyloxy)-3-(trifluoromethyl)phenyl)amino)methyl pivalate]", "EC50": "< 1"}, {"smiles": "CCCCCOc1ccc(N(C(=O)C(C)C)c2nc(CN(C)C)cs2)cc1C(F)(F)F", "note": "[Compound 21, N-(4-((dimethylamino)methyl)thiazol-2-yl)-N-(4-(pentyloxy)-3-(trifluoromethyl)phenyl)isobutyramide]", "EC50": "1 to 10"}, {"smiles": "CCCCCOc1ccc(N(C(=O)CC(=O)OC)c2nc(-c3ccc(F)cc3)cs2)cc1C(F)(F)F", "note": "[Compound 43, methyl 3-((4-(4-fluorophenyl)thiazol-2-yl)(4-(pentyloxy)-3-(trifluoromethyl)phenyl)amino)-3-oxopropanoate]", "EC50": "< 1"}, {"smiles": "CCCCCOc1ccc(N(C(=O)C2CC2)c2nc(-c3ccc(C(=O)N(C)C)cn3)cs2)cc1C(F)(F)F", "note": "[Compound 13, N,N-dimethyl-6-(2-(N-(4-(pentyloxy)-3-(trifluoromethyl)phenyl)cyclopropane-carboxamido)thiazol-4-yl)nicotinamide]", "EC50": "> 10"}, {"smiles": "CCCCCOc1ccc(N(C(=O)OC)c2nc(-c3ccc(F)cc3)cs2)cc1C(F)(F)F", "note": "[Compound 47, methyl 4-(4-fluorophenyl)thiazol-2-yl(4-(pentyloxy)-3-(trifluoromethyl)phenyl)carbamate]", "EC50": "< 1"}, {"smiles": "CCCCCCCCOc1ccc(N(C(=O)COC(C)=O)c2nc(-c3cccnc3)cs2)cc1C(F)(F)F", "note": "[Compound 158, 2-((4-(octyloxy)-3-(trifluoromethyl)phenyl)(4-(pyridin-3-yl)thiazol-2-yl)amino)-2-oxoethyl acetate]", "EC50": "< 1"}, {"smiles": "CCCCCCCOc1ccc(N(C(=O)c2cc(C)on2)c2nc(-c3ccc(Cl)s3)cs2)cc1", "note": "[Compound 91, N-(4-(5-chlorothiophen-2-yl)thiazol-2-yl)-N-(4-(heptyloxy)phenyl)-5-methylisoxazole-3-carboxamide]", "EC50": "< 1"}, {"smiles": "CCCCCOc1ccc(N(C)c2nc(-c3cccnc3)cs2)cc1C(F)(F)F", "note": "[Compound 2, N-methyl-N-(4-(pentyloxy)-3-(trifluoromethyl)phenyl)-4-(pyridin-3-yl)thiazol-2-amine]", "EC50": "< 1"}, {"smiles": "CCCCOc1ccc(N(C(N)=O)c2nc(-c3ccc(F)cc3)cs2)cc1C(F)(F)F", "note": "[Compound 135, 1-(4-butoxy-3-(trifluoromethyl)phenyl)-1-(4-(4-fluorophenyl)thiazol-2-yl)urea]", "EC50": "< 1"}, {"smiles": "CCCCCCCCOc1ccc(N(C(=O)CCC(=O)O)c2nc(-c3cccnc3)cs2)cc1C(F)(F)F", "note": "[Compound 161, 4-((4-(octyloxy)-3-(trifluoromethyl)phenyl)(4-(pyridin-3-yl)thiazol-2-yl)amino)-4-oxobutanoic acid]", "EC50": "< 1"}, {"smiles": "CC(C)COc1ccc(N(C(N)=O)c2nc(-c3ccc(F)cc3)cs2)cc1C(F)(F)F", "note": "[Compound 125, 1-(4-(4-fluorophenyl)thiazol-2-yl)-1-(4-isobutoxy-3-(trifluoromethyl)phenyl)urea]", "EC50": "< 1"}, {"smiles": "CCCCCOc1ccc(N(C(C)=O)c2nc(-c3ccc(CN(C)C)nc3)cs2)cc1C(F)(F)F", "note": "[Compound 16, N-(4-(6-((dimethylamino)methyl)pyridin-3-yl)thiazol-2-yl)-N-(4-(pentyloxy)-3-(trifluoromethyl)phenyl)acetamide]", "EC50": "1 to 10"}, {"smiles": "CC(C)COc1ccc(N(C(N)=O)c2nc(-c3ccc4c(c3)NC(=O)CO4)cs2)cc1C(F)(F)F", "note": "[Compound 149, 1-(4-isobutoxy-3-(trifluoromethyl)phenyl)-1-(4-(3-oxo-3,4-dihydro-2H-benzo[b][1,4]oxazin-6-yl)thiazol-2-yl)urea]", "EC50": "< 1"}, {"smiles": "CCCCCOc1ccc(N(C(=O)C(C)OC(C)=O)c2nc(-c3cccnc3)cs2)cc1C(F)(F)F", "note": "(stereo not drawn) [Compound 64, 1-oxo-1-((4-(pentyloxy)-3-(trifluoromethyl)phenyl)(4-(pyridin-3-yl)thiazol-2-yl)amino)propan-2-yl acetate]", "EC50": "< 1"}, {"smiles": "CCCCCOc1ccc(N(C(=O)C(=O)OC)c2nc(-c3ccncc3)cs2)cc1C(F)(F)F", "note": "[Compound 35, methyl 2-oxo-2-((4-(pentyloxy)-3-(trifluoromethyl)phenyl)(4-(pyridin-4-yl)thiazol-2-yl)amino)acetate]", "EC50": "< 1"}, {"smiles": "CCCCCOc1ccc(N(C(N)=O)c2nc(-c3ccncc3)cs2)cc1F", "note": "[Compound 141, 1-(3-fluoro-4-(pentyloxy)phenyl)-1-(4-(pyridin-4-yl)thiazol-2-yl)urea]", "EC50": "> 10"}, {"smiles": "NCCN(c1ccc(OCCCCc2cccs2)c(C(F)(F)F)c1)c1nc(-c2cccnc2)c(F)s1", "note": "[Compound 193, N1-(5-fluoro-4-(pyridin-3-yl)thiazol-2-yl)-N1-(4-(4-(thiophen-2-yl)butoxy)-3-(trifluoromethyl)phenyl)ethane-1,2-diamine]", "EC50": "1 to 10"}]}]}
